Results: the METLIN SMRT retention time set (Domingo-Almenara et al. 2019)

Assay: gradient 5% acetonitrile 3 min, to 50% in 2 min, to 85% in 15 min, held 3 min, 100 µL/min
Conditions: column: Zorbax Extend-C18 2.1 x 50 mm; eluents: water / acetonitrile, 0.1% formic acid
Method in brief: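 Values are retention times taken from adduct peaks that software picked and an analyst inspected. The pure standards were run as mixtures of ~100 molecules on HPLC linked to a quadrupole time-of-flight mass spectrometer, in positive and negative ionization mode. A Zorbax Extend-C18 column (2.1 × 50 mm, 1.8 μm) was used at 100 μL/min with water and acetonitrile, each including 0.1% formic acid.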

RP-LC retention time [s]	SMILES
619	CCn1ccc(C(=O)N2CCC(Cc3nc4cccnc4n3CC(C)C)C2)n1 (stereo not drawn)
749	COc1ccccc1CCC(=O)NCc1cccnc1OC
907	COc1ccccc1NC(=O)N(C)CCc1noc(COc2ccc(F)cc2)n1
746	CCCNC(=O)C1CCCN(C(=O)c2cc(C)cc(C)c2)C1 (stereo not drawn)
583	COc1ccc(CN2CCC3(CC2)CC(C)(O)CCO3)cc1OC (stereo not drawn)
615	CCC1CN2C=NC(N3CCN(C(=O)Cc4ccccc4)CC3)=CC2=N1 (stereo not drawn)
791	CCCN(CC1CCOC1)C(=O)Nc1c(C)cccc1C (stereo not drawn)
889	CCOc1cccc(CNC(=O)c2cn(C)nc2S(=O)(=O)N2CCSCC2)c1
984	CC(C(=O)Nc1ccc(F)c(F)c1)C1CCN(C(=O)Nc2ccc(Cl)cc2)CC1 (stereo not drawn)
971	CCOc1ccccc1N1CCN(S(=O)(=O)c2nn(C)cc2C(=O)NCCCOC(C)C)CC1
612	CN(C)C(=O)CN1CCN(c2cc(C(=O)O)c3cc(NC(=O)c4cccc(Cl)c4)ccc3n2)CC1
838	CCc1nc2cc(N3CCC(C(=O)NCc4cc(F)ccc4F)CC3)cnc2nc1CC
860	Cc1nc(C)c(C(=O)Nc2ccc(C)c(F)c2)s1
1020	O=C(NCCCc1ccccc1)C1CCCN(c2nccnc2Oc2ccccc2)C1 (stereo not drawn)
1030	Cn1cc(C(=O)NCCc2ccccc2)c(S(=O)(=O)N2CCSCC2)n1
644	CCn1nccc1C(=O)Nc1cccc(-c2nnc3n2CCCC3)c1
831	CCc1nc(OCC(=O)Nc2ccccc2Cl)c2ccccc2n1

RP-LC retention time [s]	SMILES
999	CCOC(=O)c1cc(S(=O)(=O)N2CCCC2C(=O)Nc2ccccc2C(F)(F)F)cn1C (stereo not drawn)
750	CC(C)N1C(=O)Cc2ccccc2C1C(=O)NCc1cccs1 (stereo not drawn)
668	Cn1nc(C2CCN(C(=O)NCc3ccccc3)CC2)c2c1CCOC2
669	CCNc1cc(N2CCC(CCC(=O)NCc3cc(F)cc(F)c3)CC2)ncn1
844	COC(=O)c1cc(S(=O)(=O)N2CCCC2C(=O)Nc2ccccc2F)cn1C (stereo not drawn)
897	COc1cc(OC)c(NC(=O)Cn2nc(C(=O)N3CCCC3)c3ccccc32)cc1Cl
625	CO[C@H]1C(=O)N(C2CCN(S(=O)(=O)c3c(C)noc3C)CC2)[C@H]1c1ccncc1
818	Cc1ccc(S(=O)(=O)CCc2noc(-c3sc(C)nc3C)n2)cc1
610	Cc1ccc(NC(=O)Cc2cn3cc(F)ccc3n2)c(C)c1
680	COc1ccc(CC(=O)Nc2ccc3ncnc(N4CCCC4)c3c2)cc1Cl
633	O=C(CCC1CCN(c2cc(NC3CC3)ncn2)CC1)NCc1cccs1
777	COCCCNC(=O)C1CCCN(c2ccc(Sc3ccc(Br)cc3)nn2)C1 (stereo not drawn)
1010	CCc1nc(-c2csc(S(=O)(=O)N3CCC(C(=O)Nc4ccccc4CC)CC3)c2)no1
731	CC(=O)Nc1ccc(-c2noc(C3CCCN(C(=O)c4ccoc4)C3)n2)cc1 (stereo not drawn)
677	CCOC(=O)N1CCC(NC(=O)CCc2cc3cc(C)ccc3[nH]c2=O)CC1
973	CCn1nccc1-c1cccc(-c2noc(C(NC(=O)c3ccco3)C(C)C)n2)c1 (stereo not drawn)

More lines, now with the values behind:

SMILES	RP-LC retention time [s]
COc1ccc(-n2c(=O)c(C(=O)Nc3ccccc3Cl)c(O)c3cccnc32)cc1	1270
N#Cc1cnc2ccc(F)cc2c1N1CCC(C(=O)N2CCSCC2)CC1	766
CC1=C(c2ccccc2)S(=O)(=O)N=C1N1CCCN(C(=O)NCc2ccccc2)CC1	843
CCOc1c(C(=O)OC)sc2ccc(NC(=O)c3[nH]nc4c3CCc3ccccc3-4)cc12	1140
CC(C)NC(=O)C1CCN(C(=O)c2ncn3c2COC(c2ccc(F)cc2)C3)CC1 (stereo not drawn)	679
O=C(NC1CC1)C1CCN(S(=O)(=O)Cc2ccc(F)cc2)CC1	929
COc1ccc(C2CC(=O)N(c3ccc(F)c(F)c3)C(=O)C2)cc1OC	852
O=C(NC1CCCN(c2cc(-c3ccc(F)cc3)[nH]n2)C1)c1ccc2c(c1)OCO2 (stereo not drawn)	796
Cc1nn(C(C)C(=O)NCCN2CCCCCC2)c(=O)c2c(-n3cccc3)n(-c3ccccc3)nc12 (stereo not drawn)	736
CCn1c(=O)c(C)nc2cc(-c3noc(-c4cccc(Cl)c4)n3)ccc21	1220
CC(C)c1ccc(NC(=O)C2CCCN(C(=O)C3Sc4ccccc4NC3=O)C2)cc1 (stereo not drawn)	913
O=C(NCCc1ccccc1)C(=O)NCCc1cccs1	832
O=C(NCCc1ccccc1)c1nnc(-c2ccc(S(=O)(=O)N3CCCC3)cc2)o1	916
Cn1c(CN2CCN(C(=O)NC(C)(C)C)CC2)nc2cc(C(=O)N3CCCC3)ccc21	602
O=C(CCn1cnc2cc(-c3noc(-c4cccc5[nH]ccc45)n3)ccc21)N1CCCC1	701
CCc1nc2cc(-c3noc(-c4cnccn4)n3)ccc2o1	830
COc1ccc(N2C=C(C(=O)N3CCCC3)S(=O)(=O)c3ccc(F)cc32)cc1	736
O=C(c1cc(-c2ccncc2)n[nH]1)N1CCN(C(=O)c2cccc3[nH]ccc23)CC1	571
Cc1ccccc1Nc1c(-c2cccc(Cl)c2)nc2ncccn12	901
CC1CN=C2C(N3CCN(C(=O)c4ccc(C#N)cc4)CC3)=NC=CN21 (stereo not drawn)	678
Cc1cc(C)n(-c2nc(-c3ccccc3)cc(=O)n2CC(=O)N2CCCc3ccccc32)n1	1040
O=C(CN1C(=O)NC(c2ccc(Cl)cc2)C2=C1COC2=O)NCc1ccccc1Cl (stereo not drawn)	811
O=C(CSc1nnc(NC(=O)c2cccc([N+](=O)[O-])c2)s1)Nc1nccs1	702
O=C(NC1CCCCCC1)C1CCN(S(=O)(=O)c2cc(-c3noc(C4CCC4)n3)cs2)CC1	1110
C=CCn1nnc(NCc2ccc(-c3ccc(Br)cc3Br)o2)n1	1200
Cc1sc(NC(=O)CSc2nnc3c4ccccc4n(C)c3n2)nc1-c1ccccc1	1030
O=C(NCCO)c1cccc(-c2cc(Nc3ccc(OC(F)(F)F)cc3)ncn2)c1	793
COc1ccc(C(=O)N2CCN3CCS(=O)(=O)N(C4CC4)C(=O)C3C2)c(OC)n1 (stereo not drawn)	732

SMILES	RP-LC retention time [s]
COC(=O)c1ccc(NC(=O)Cn2c(=O)c3cc(C)nn3c3ncccc32)cc1	700
O=C1CC(c2ccco2)Cc2[nH]c(=O)c(C(=O)Nc3ccccc3C(F)(F)F)cc21 (stereo not drawn)	746
Cn1c(=O)c2c(ncn2CC2OCCO2)n(C)c1=O	606
Cn1nnnc1SCC(=O)Nc1nc(-c2ccccc2)c(-c2ccccc2)o1	888
Cc1cc2nn(CC(=O)Nc3ccccc3)c(=O)n2c(-c2ccccc2)n1	769
O=C(Nc1cccc(-c2cn3cccnc3n2)c1)c1ccc(Cl)cc1	739
Clc1cc(N2CCSCC2)ncn1	763
Cc1ccc(NC(=O)C2CCN(S(=O)(=O)c3cc(C(=O)N4CCCC4)cs3)CC2)cc1Cl	916
Cc1nnc2ccc(S(=O)(=O)Nc3ccc(Cl)cc3)cn12	711
O=c1ccc(-c2cccs2)nn1CCCNS(=O)(=O)c1cccc(Cl)c1Cl	856
CCN1C(=O)c2cccnc2Sc2cc(CNC(=O)c3cccc(F)c3)ccc21	791
O=C(Nc1ccc(N2CCOCC2)cc1)C1CCCN(c2ncc(-c3ccc(F)cc3)cn2)C1 (stereo not drawn)	951
O=C(NCCc1ccncc1)C1CN(C(=O)c2cccs2)CC12CCCCC2 (stereo not drawn)	610
Cc1nc2c(sc3nc(-c4ccccc4)ccc32)c(=O)n1CC(=O)Nc1ccccc1C(F)(F)F	1070
Cc1ccc(-n2ccc(=O)c(-c3nc(-c4ccc(Cl)c(F)c4)no3)n2)cc1	1050
CCOc1ccc(NS(=O)(=O)c2cc(C(=O)Nc3ccc(Br)cc3)n[nH]2)cc1	927
Cn1c(=O)c2c(Nc3ccc(C(F)(F)F)cc3)ccnc2n(C)c1=O	1010
O=C(Nc1ccc(Cl)c(N2CCCS2(=O)=O)c1)c1ccccc1C(F)(F)F	791
Cn1nc(-c2nc(-c3ccccc3F)no2)c2c1CCN(C(=O)C1CCCO1)C2 (stereo not drawn)	770
Cn1c(=O)c(SCC(=O)NCc2cccc(Cl)c2)nc2ccccc21	819
O=C(O)c1ccc(N2CCCCC2)cc1O	828
Cc1ccc(S(=O)(=O)CC(=O)Nc2nc(-c3ccc4ccccc4c3)cs2)cc1	1100
Cc1ccc2ncn(C3CCN(S(=O)(=O)c4cccc(Cl)c4)CC3)c(=O)c2c1	963
COc1ccccc1-c1nc2nccc(-c3cc4ccccc4o3)n2n1	1010
CN1CCn2cc(S(=O)(=O)NCc3cc(F)cc(F)c3)cc2C1=O	691
COc1cc(NC(=O)CCc2c(-c3ccccc3)nc3ccccn23)cc(OC)c1	671
CCCS(=O)(=O)N1CCc2nc(N3CCN(C)CC3)sc2C1	764
